≈ marks a conversion by molar mass, not a printed value.
How the values were obtained:
P. aerug. Hypersuc = experiment: Susceptibility testing (MIC, CLSI microdilution); assay type: cell-based, Pseudomonas aeruginosa; settings: 20 h at 35° C., Δ efflux, hypersusceptible strain, unit assumed
Experimental: (§1) Compounds were tested following the microdilution method of CLSI (Clinical and Laboratory Standards Institute. Methods for dilution antimicrobial susceptibility tests for bacteria that grow aerobically; Approved standard—sixth edition. CLSI document M7-A5, CLSI, Wayne, Pa. 2003). Assays were performed in sterile plastic 96-well microtiter trays with round bottom wells (Greiner).
(§2) Stock solutions of test compounds and control antibiotics were prepared at 10 mg/ml in DMSO. Serial 2-fold dilutions of each drug were performed in a microtiter plate across each row using DMSO as solvent at 100-fold the desired final concentration. Wells in columns #1-11 contain drug and column #12 was kept as a growth control for the organism with no drug. Each well in the mother plate was diluted with sterile deionized water and DMSO, mixed, and volumes of 10 μl distributed to each well in the resulting assay plates.
(§3) Stock cultures were prepared using the Microbank™ method (Pro-Lab Diagnostics) and stored at −80° C. To propagate each strain, one bead was removed from the frozen vial and aseptically streaked onto Trypticase Soy Agar (Difco) which were incubated at 35° C. Standardized inocula were prepared using the direct colony suspension method according to CLSI guidelines (Clinical and Laboratory Standards Institute. Methods for dilution antimicrobial susceptibility tests for bacteria that grow aerobically; Approved standard—sixth edition. CLSI document M7-A5, CLSI, Wayne, Pa., 2003). Isolated colonies were selected from an 18-24 hr agar plate and resuspended in 0.9% sterile saline to match a 0.5 McFarland turbidity standard using a calorimeter (Vitek) at 80% of transmitance. The suspension was used within 15 minutes of preparation.
(§4) Mueller-Hinton Broth (MHB) (Difco) was prepared at a 1.1× concentration and supplemented with Ca++ and Mg++ as recommended by CLSI. For each organism, the standardized suspension was diluted 1:180 into appropriate growth medium in a sterile reservoir. After mixing, wells in the drug-containing assay plates were inoculated with a volume of 90 μl. Thus, for each minimum inhibitory concentration (MIC) determination, each well contains a final volume of 100 μl with an inoculum size of approximately 5×10^5 colony forming units (cfu)/ml and no more than 1% DMSO.
(§5) The completed microtiter plates were incubated 20 h at 35° C. in ambient air. Optical density of each well was determined at 600 nm using a VersaMax Microplate reader (Molecular Devices, Sunnyvale, Calif.). The MIC was defined as the lowest drug concentration causing complete suppression of visible bacterial growth.

P. aerug. (2) = experiment: Susceptibility testing (MIC, CLSI microdilution); assay type: cell-based, Pseudomonas aeruginosa; settings: 20 h at 35° C., in µg/mL (unit assumed)
Experimental: as §1, §2, §3, §4, §5

H. influen. = experiment: Susceptibility testing (MIC, CLSI microdilution); assay type: cell-based, Haemophilus influenzae; settings: 20 h at 35° C., unit assumed
Experimental: as §1, §2, §3, §4, §5

K. pneu. = experiment: Susceptibility testing (MIC, CLSI microdilution); assay type: cell-based, Klebsiella pneumoniae; settings: 20 h at 35° C., unit assumed
Experimental: as §1, §2, §3, §4, §5

E. coli tolC = experiment: Susceptibility testing (MIC, CLSI microdilution); assay type: cell-based, Escherichia coli; settings: 20 h at 35° C., unit assumed
Experimental: as §1, §2, §3, §4, §5

E. coli (2) = experiment: Susceptibility testing (MIC, CLSI microdilution); assay type: cell-based, Escherichia coli; settings: 20 h at 35° C., in µg/mL (unit assumed)
Experimental: as §1, §2, §3, §4, §5

P. ae LpxC enzyme = P. ae LpxC enzyme (Pseudomonas aeruginosa, UniProt P47205); experiment: Enzyme inhibition testing (fluorescamine assay); assay type: biochemical; settings: read-out: ENZYME (percent inhibition); for inhibition at 0.5 µg/mL: @0.5 μg/ml; for inhibition at 10 µg/mL: @10 μg/ml; for inhibition at 0.1 µg/mL: @0.1 μg/ml
P. ae LpxC enzyme, sequence (P47205 whole entry): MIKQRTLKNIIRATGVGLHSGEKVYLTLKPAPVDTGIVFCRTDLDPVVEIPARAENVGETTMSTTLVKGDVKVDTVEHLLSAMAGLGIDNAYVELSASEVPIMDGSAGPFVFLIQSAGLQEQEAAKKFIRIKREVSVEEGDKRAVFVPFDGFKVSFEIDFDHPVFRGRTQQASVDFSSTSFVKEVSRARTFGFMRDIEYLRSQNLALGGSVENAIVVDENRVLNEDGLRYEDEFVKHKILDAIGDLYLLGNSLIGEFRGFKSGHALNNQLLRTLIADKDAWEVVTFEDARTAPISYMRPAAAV
Experimental: Compounds were tested based on a published method (Wang W., 2001, Anal Biochem, 290, 338-46) with modifications. Enzyme assays were performed in the assay buffer (50 mM HEPES, pH8, 0.005% Brij, 50 μM ZnSO4, 1 mg/ml BSA) in 96-well V-bottom microtiter plates.
Stock solutions of test compounds and control antibiotics are prepared at 10 mg/ml in DMSO and are diluted in the assay buffer to 6-fold the final testing concentration. 5 μl compound dilution is distributed to the well of the assay plate. EDTA is used as positive control and the final concentration in assay is 12.5 mM.
P. ae LpxC enzyme dilution in the assay buffer is added to the compound in plate and pre-incubated with the compound at room temperature for 10 min. LpxC substrate is added to initiate the enzyme reaction and the final enzyme and substrate concentrations are 1.2 μM and 0.4 mM, respectively. The reaction continues at RT for 4 hrs before diluted with 45 μl of Borate buffer (0.4 M, pH9), followed by addition of 40 μl derivatization reagent (fluorescamine 2 mg/ml DMF). This mixture is incubated at RT for 10 min followed by addition of 150 μl DMF/H2O (1:1). The resulting solution is loaded onto Millipore filter unit (Microcon 10 k MWCO) and spun at 13 k rpm on bench top centrifuge for 15 min. 100 μl of this filtrate is transferred to a low fluorescence clear-bottom 96-well plate (Corning) and the fluorescence is detected at ex360 nm and em465 nm on a Tecan fluorescence plate reader. The percent inhibition is calculated based on EDTA produces 100% inhibition and negative control produces 100% activity.

Row | SMILES | MIC P. aerug. Hypersuc (P. aerug. Hypersuc) | MIC P. aerug. (2) (P. aerug. (2)) | MIC H. influen. (H. influen.) | MIC K. pneu. (K. pneu.) | MIC E. coli tolC (E. coli tolC) | MIC E. coli (2) (E. coli (2)) | inhibition at 0.5 µg/mL (P. ae LpxC enzyme) | inhibition at 10 µg/mL (P. ae LpxC enzyme) | inhibition at 1 µg/mL (P. ae LpxC enzyme; @1 μg/ml) | inhibition at 0.1 µg/mL (P. ae LpxC enzyme)
1 | CCCc1ccc(-c2ccc(C(=O)N3CC[C@H](NC=O)[C@H]3C(=O)NO)cc2)cc1 [Compound 4, (2S,3S)-3-Formamido-N-hydroxy-1-(4′-propylbiphenylcarbonyl)pyrrolidine-2-carboxamide] | 64 µg/mL (≈ 162 µM) | >64 | > 64 µg/mL | > 64 µg/mL | 32 µg/mL (≈ 80.9 µM) | >64 | 69% | – | – | –
2 | CCCc1ccc(-c2ccc(C(=O)N3CC[C@H](NC)[C@H]3C(=O)NO)cc2)cc1 [Compound 5] | 64 µg/mL (≈ 168 µM) | >64 | 32 µg/mL (≈ 83.9 µM) | > 64 µg/mL | 32 µg/mL (≈ 83.9 µM) | 64 | 29% | – | – | –
3 | CCCc1ccc(-c2ccc(C(=O)N3CC[C@H](F)[C@H]3C(=O)NO)cc2)cc1 [Compound 6] | 32 µg/mL (≈ 86.4 µM) | >64 | > 64 µg/mL | 32 µg/mL (≈ 86.4 µM) | 16 µg/mL (≈ 43.2 µM) | >64 | 87% | – | – | –
4 | CCCc1ccc(-c2ccc(C(=O)N3CC[C@@H](OC)[C@H]3C(=O)NO)cc2)cc1 [Compound 8] | > 64 µg/mL | >64 | 64 µg/mL (≈ 167 µM) | > 64 µg/mL | 32 µg/mL (≈ 83.7 µM) | >64 | – | 21% | – | –
5 | CCCc1ccc(-c2ccc(C(=O)N3C[C@@](O)(COC)C[C@H]3C(=O)NO)cc2)cc1 [Compound 9, (2S,4R)-N,4-Dihydroxy-4-(methoxymethyl)-1-(4′-propylbiphenylcarbonyl)pyrrolidine-2-carboxamide] | 32 µg/mL (≈ 77.6 µM) | >64 | > 64 µg/mL | > 64 µg/mL | > 64 µg/mL | >64 | – | – | 57% | –
6 | CCCc1ccc(-c2ccc(C(=O)N3C[C@H](O)[C@H](O)[C@H]3C(=O)NO)cc2)cc1 [Compound 10] | 64 µg/mL (≈ 166 µM) | >64 | > 64 µg/mL | > 64 µg/mL | 64 µg/mL (≈ 166 µM) | >64 | 60% | – | – | –
7 | CCCc1ccc(-c2ccc(C(=O)N3C[C@@H](N)[C@H](O)[C@H]3C(=O)NO)cc2)cc1 [Compound 11, (2S,3S,4R)-4-Amino-N,3-dihydroxy-1-(4′-propylbiphenylcarbonyl)pyrrolidine-2-carboxamide] | 16 µg/mL (≈ 41.7 µM) | 64 | 32 µg/mL (≈ 83.5 µM) | > 64 µg/mL | 32 µg/mL (≈ 83.5 µM) | >64 | 84% | – | – | –
8 | CCCc1ccc(-c2ccc(C(=O)N3CCS[C@H]3C(=O)NO)cc2)cc1 [Compound 13] | 16 µg/mL (≈ 43.2 µM) | 64 | 64 µg/mL (≈ 173 µM) | 32 µg/mL (≈ 86.4 µM) | > 64 µg/mL | >64 | – | 71% | – | –
9 | CCCc1ccc(-c2ccc(C(=O)N3CC[S+]([O-])[C@H]3C(=O)NO)cc2)cc1 (stereo partly drawn) [Compound 14, (S)-N-Hydroxy-3-(4′-propylbiphenylcarbonyl)thiazolidine-sulfoxide-2-carboxamide] | 8 µg/mL (≈ 20.7 µM) | 32 | > 64 µg/mL | 64 µg/mL (≈ 166 µM) | 16 µg/mL (≈ 41.4 µM) | >64 | 99% | – | – | –
10 | CCCc1ccc(-c2ccc(C(=O)N3CCS(=O)(=O)[C@H]3C(=O)NO)cc2)cc1 [Compound 15, (S)-N-Hydroxy-3-(4′-propylbiphenylcarbonyl)thiazolidine-sulfone-2-carboxamide] | 2 µg/mL (≈ 4.97 µM) | 8 | 32 µg/mL (≈ 79.5 µM) | 4 µg/mL (≈ 9.94 µM) | 2 µg/mL (≈ 4.97 µM) | 16 | – | – | – | 41%
11 | CCCc1ccc(-c2ccc(C(=O)N3CSC[C@H]3C(=O)NO)cc2)cc1 [Compound 16] | 16 µg/mL (≈ 43.2 µM) | >64 | > 64 µg/mL | > 64 µg/mL | 16 µg/mL (≈ 43.2 µM) | >64 | 57% | – | – | –
12 | CCCc1ccc(-c2ccc(C(=O)N3CCS[C@@H]3C(=O)NO)cc2)cc1 [Compound 18, (R)-N-Hydroxy-3-(4′-propylbiphenylcarbonyl)thiazolidine-2-carboxamide] | 32 µg/mL (≈ 86.4 µM) | >64 | 64 µg/mL (≈ 173 µM) | 32 µg/mL (≈ 86.4 µM) | 16 µg/mL (≈ 43.2 µM) | >64 | 50% | – | – | –
13 | CCCc1ccc(-c2ccc(C(=O)N3CCS(=O)(=O)[C@@H]3C(=O)NO)cc2)cc1 [Compound 19, (R)-N-Hydroxy-3-(4′-propylbiphenylcarbonyl)thiazolidine-sulfone-2-carboxamide] | 2 µg/mL (≈ 4.97 µM) | 8 | 32 µg/mL (≈ 79.5 µM) | 4 µg/mL (≈ 9.94 µM) | 2 µg/mL (≈ 4.97 µM) | 8-16 | – | – | – | 10%
14 | CCCc1ccc(-c2ccc(C(=O)N[C@@H](CCSC)C(=O)NO)cc2)cc1 [Compound 26, (S)-N-(1-(Hydroxyamino)-4-(methylthio)-1-oxobutan-2-yl)-4′-propylbiphenyl-4-carboxamide] | > 64 µg/mL | >64 | > 64 µg/mL | > 64 µg/mL | > 64 µg/mL | >64 | 72% | – | – | –
15 | CCCc1ccc(-c2ccc(C(=O)N[C@@H](CCS(C)(=O)=O)C(=O)NO)cc2)cc1 [Compound 27, (S)-N-(1-(Hydroxyamino)-4-(methylsulfone)-1-oxobutan-2-yl)-4′-propylbiphenyl-4-carboxamide] | > 64 µg/mL | >64 | > 64 µg/mL | > 64 µg/mL | > 64 µg/mL | >64 | – | – | – | 38%
16 | CCCc1ccc(-c2ccc(C(=O)NC(C(=O)NO)c3cccs3)cc2)cc1 (centres unmarked) [Compound 30, N-(2-(Hydroxyamino)-2-oxo-1-(thiophen-2-yl)ethyl)-4′-propylbiphenyl-4-carboxamide] | 32 µg/mL (≈ 81.1 µM) | >64 | 16 µg/mL (≈ 40.6 µM) | 8 µg/mL (≈ 20.3 µM) | 2 µg/mL (≈ 5.07 µM) | 64 | 87% | – | – | –
17 | CCCc1ccc(-c2ccc(C(=O)N[C@@H](Cn3cccn3)C(=O)NO)cc2)cc1 [Compound 31] | 64 µg/mL (≈ 163 µM) | >64 | > 64 µg/mL | > 64 µg/mL | 1 µg/mL (≈ 2.55 µM) | >64 | 100% | – | – | –

From patent publication US8088804B2, “N-hydroxyamide derivatives possessing antibacterial activity” (Pfizer Inc., priority 2005, dated 2012)
